Test results: publication PMC8458281, “Computational modeling and experimental validation of the EPI-X4/CXCR4 complex allows rational design of small peptide antagonists” (Communications Biology, 2021)

Test system: CXCR4 E288D
Assay: 12G5 antibody competition, 293T cells transfected with CXCR4 E288D
Format: binding, human
Settings: IC50 on CXCR4 E288D relative to wt
Text: The human CXCR4 gene (isoform 1 or b, NCBI Reference Sequence: NP_003458.1, UniProtKB/Swiss-Prot: P61073-1) was amplified by PCR of the pTrip_GFP_CXCR4 vector (kindly provided by Prof. Françoise Bachelerie, Paris, France) by generating the flanking single cutter sites NheI and HindIII. The PCR fragment was ligated in the empty pcDNA3.1(+) vector (Life Technologies GmbH, Darmstadt). Afterward, the IRES-eGFP cassette of the proviral clone pBR_NL4-3_IRES-eGFP[44] was PCR-amplified with EcoRI and NotI single cutter sites and ligated in the multiple cloning site after CXCR4. […]
To test for peptide interaction with CXCR4, 50,000 SupT1 cells were seeded in 96-well microtiter plates in PBS supplemented with 1% FCS, the buffer was removed and cells were precooled at 4 °C. […] Afterward, the unbound antibody was removed and cells analyzed by flow cytometry. The mean fluorescence intensity (MFI) was normalized to the PBS control. […] IC50 values were determined by nonlinear regression using GraphPad Prism. […] For analysis, after flow cytometry, eGFP expressing cells were gated and further analyzed. CXCR4 expression levels and antibody binding to CXCR4 was determined using the CXCR4 antibody clones 12G5 (binds to the second ECL loop) (#555976, BD PharmingenTM) and 1D9 (binds to the N-terminus) (#551510, BD PharmingenTM) (Supplement Figure S5). […]

IVRWSKKVPCVS [WSC02, first-generation C-terminally truncated 12-mer derivative of EPI-X4 with four substitutions]
Fold change: 74
